Data: patent US20210401929A1 (Northeast Normal University, priority 2020, published 2021)

Tested on: lung inflammation mice model
Test: LPS lung inflammation mice model, inflammatory factor mRNA in lung by real-time PCR
Assay type: in vivo
Conditions: intranasal, peptide alone without LPS

Compound: N=C(N)NCCC[C@H](NC(=O)[C@H](CCCNC(=N)N)NC(=O)[C@H](CCCNC(=N)N)NC(=O)[C@H](CCC(N)=O)NC(=O)[C@H](CCCNC(=N)N)NC(=O)[C@H](CCCNC(=N)N)NC(=O)[C@H](CCCCN)NC(=O)[C@H](CCCCN)NC(=O)[C@H](CCCNC(=N)N)NC(=O)CNC(=O)[C@@H](N)Cc1ccc(O)cc1)C(=O)O [TAT]
- inflammation in the lungs of mice treated with peptide alone (inflammatory factor mRNA): do not cause inflammation
